Laboratory results reported in the RepoRT retention time repository.

Test: A: acetonitrile + 0.1% formic acid + 10 mM ammonium formate; B: 5% water + 95% acetonitrile + 0.1% formic acid + 10 mM ammonium formate; gradient (min/%B) 0/10 2/10 22/100 27/100 27.1/10
Conditions: stereoisomer not certain

Row | SMILES | LC retention time [min]
1 | COc1cc(C2Oc3cc(C4Oc5cc(O)cc(O)c5C(=O)C4O)ccc3OC2CO)ccc1O (stereo not given) [Silibinin] | 0.474
2 | OC[C@H]1O[C@@H](O[C@H]2[C@H](O)[C@@H](O)[C@H](O)O[C@@H]2CO)[C@H](O)[C@@H](O)[C@H]1O [beta-Lactose] | 6.75
3 | COC(=O)c1cccnc1 [Methyl nicotinate] | 0.625
4 | CC12CC3CC(C)(C1)CC(N)(C3)C2 [Memantine] | 1.94
5 | O=C(O)COCCN1CCN(C(c2ccccc2)c2ccc(Cl)cc2)CC1 (stereo not given) [Cetirizine] | 1.33
6 | COc1ccc(-c2coc3cc(O)cc(O)c3c2=O)cc1 [Biochanin A] | 0.424
7 | O=Cc1ccc(O)cc1 [4-Hydroxybenzaldehyde] | 3.98
8 | CCC(=C(c1ccccc1)c1ccc(OCCN(C)C)cc1)c1ccccc1 [Tamoxifen] | 0.887
9 | CC(C)[C@H](NC(=O)CN)C(=O)O [Glycyl-L-valine] | 6.02
10 | CCc1occc(=O)c1O [2-Ethyl-3-hydroxy-4H-pyran-4-one] | 0.586
11 | CSc1ccc2c(c1)N(CCC1CCCCN1C)c1ccccc1S2 (stereo not given) [Thioridazine] | 0.953
12 | NC(COP(=O)(O)O)C(=O)O (stereo not given) [Phosphoserine] | 7.9
13 | Nc1ccc(O)cc1 [4-Aminophenol] | 0.517
14 | O=C(O)CNC(=O)c1ccccc1O [2-Hydroxy Hippuric Acid] | 1.14
15 | NC(N)=NC(=O)c1nc(Cl)c(N)nc1N [Amiloride] | 2.91
16 | COc1cc(C=CC(=O)CC(=O)C=Cc2ccc(O)c(OC)c2)ccc1O [Curcumin] | 0.431
17 | O=C(O)C(c1ccccc1)C1CCCCN1 (stereo not given) [Ritalinic Acid] | 3.41
18 | CCN(Cc1cccc(S(=O)(=O)O)c1)c1ccc(C(=C2C=CC(=[N+](CC)Cc3cccc(S(=O)(=O)O)c3)C=C2)c2ccccc2S(=O)(=O)[O-])cc1 [Erioglaucine] | 4.34
19 | NCC(=O)NCC(=O)O [Glycyl-glycine] | 7.02
20 | CCCc1nc(C)c2c(=O)[nH]c(-c3cc(S(=O)(=O)N4CCN(CC)CC4)ccc3OCC)nn12 [Vardenafil] | 1.08
21 | Cc1ncc(CO)c(C=O)c1O [Pyridoxal] | 0.981
22 | CC(=O)NCC(=O)O [N-Acetylglycine] | 5.64
23 | O=C(O)CCCCCCC(=O)NCC(=O)O [Suberyl Glycine] | 5.46

Row | SMILES | LC retention time [min]
24 | CCC=CCC1C(=O)CCC1CC(=O)OC (mixture of isomers) [Methyl Jasmonate (mixture of isomers)] | 0.421
25 | COc1ccc(CC(=O)O)cc1OC [3,4-Dimethoxyphenylacetic acid] | 0.554
26 | OCC1OC(OCC2OC(OC3(CO)OC(CO)C(O)C3O)C(O)C(O)C2O)C(O)C(O)C1O [D-(+)-Raffinose] | 7.42
27 | CN1C(C(=O)Nc2ccccn2)=C(O)c2ccccc2S1(=O)=O [Piroxicam] | 0.44
28 | OCC(O)C(O)C(O)CO (stereo not given) [Xylitol] | 5.38
29 | N[C@@H](Cc1cc(I)c(Oc2ccc(O)cc2)c(I)c1)C(=O)O [3,5-Diiodo-L-Thyronine] | 3.63
30 | NC(=O)NCCCC[C@H](N)C(=O)O [L-Homocitrulline] | 6.59
31 | COc1ccc(C2Sc3ccccc3N(CCN(C)C)C(=O)C2OC(C)=O)cc1 (stereo not given) [Diltiazem] | 1.04
32 | COc1cc(CC(=O)O)ccc1O [4-Hydroxy-3-methoxyphenylacetic Acid] | 0.535
33 | O=C(O)CNC(=O)c1ccccc1 [Hippuric acid] | 1.59
34 | NC(CCS)C(=O)O (racemic) [DL-Homocysteine] | 5.69
35 | CC1OC(OC2C(Oc3cc(O)c4c(c3)OC(c3ccc(O)cc3)CC4=O)OC(CO)C(O)C2O)C(O)C(O)C1O (stereo not given) [Naringin] | 3.67
36 | O=c1c(O)c(-c2ccc(O)c(O)c2)oc2cc(O)cc(O)c12 [Quercetin] | 0.592
37 | NCCCC(=O)O [gamma-Aminobutyric acid] | 5.83
38 | C[N+](C)(C)CCOP(=O)([O-])OCC(O)CO (stereo not given) [sn-glycero-3-Phosphocholine] | 7.21
39 | Cc1noc(NS(=O)(=O)c2ccc(N)cc2)c1C [Sulfisoxazole] | 0.449
40 | Cn1cnc(=N)c2[nH]cnc21 [3-Methyladenine] | 2.75
41 | CCN1CCCC1CNC(=O)c1cc(S(N)(=O)=O)ccc1OC (racemic) [(+/-)-Sulpiride] | 2.67
42 | O=c1[nH]c(=O)n(C2CC(O)C(CO)O2)cc1I (single isomer, unassigned; (+)) [(+)-5-Iodo-2'-deoxyuridine] | 0.729
43 | CSCC[C@H](NC=O)C(=O)O [N-Formyl-L-methionine] | 2.34
44 | CN(C)Cc1c[nH]c2ccccc12 [Gramine] | 1.61
45 | Cn1c(=O)[nH]c(=O)c2[nH]cnc21 [3-Methylxanthine] | 1.15
46 | O=C(O)C/C=C/CC(=O)O [trans-2-Butene-1,4-dicarboxylic Acid] | 5.56

Row | SMILES | LC retention time [min]
47 | CC(C=CC=C(C)C=CC1=C(C)CCCC1(C)C)=CC=O [All trans-Retinal] | 0.407
48 | NC(=O)CCCCC1CCSS1 (racemic) [DL-6,8-Thioctamide] | 0.473
49 | OC(CCN1CCCCC1)(c1ccccc1)C1CCCCC1 (stereo not given) [Benzhexol] | 0.91
50 | O=C1OC2(c3ccccc31)c1cc(I)c(O)c(I)c1Oc1c2cc(I)c(O)c1I [Erythrosine B] | 0.57
51 | Cc1cnc(=O)[nH]c1N [5-Methylcytosine] | 3.15
52 | Cc1ccnc2c1NC(=O)c1cccnc1N2C1CC1 [Nevirapine] | 0.596
53 | Cn1cncc1CC(NC(=O)CCN)C(=O)O [L-Anserine] | 7.92
54 | Nc1ccc(O)c(C(=O)O)c1 [5-Aminosalicylic acid] | 1.82
55 | O=C(O)CCCCCCCCCCCC(=O)O [1,11-Undecanedicarboxylic acid] | 0.554
56 | C=C1CCC2CC1C2(C)C (stereo not drawn) [beta-Pinene] | 0.452
57 | Nc1ncnc2nc[nH]c12 [Adenine] | 2
58 | CC1=CCC2CC1C2(C)C (single isomer, unassigned; (-)) [(-)-alpha-Pinene] | 0.438
59 | NCCCNCCCCNCCCN [Spermine] | 9.6
60 | NC(Cc1cc(I)c(Oc2ccc(O)c(I)c2)c(I)c1)C(=O)O (stereo not drawn) [3,3',5-Triiodo-l-thyronine] | 3.5
61 | Cc1cnc(C(=O)NCCc2ccc(S(=O)(=O)NC(=O)NC3CCCCC3)cc2)cn1 [Glipizide] | 0.463
62 | COC(=O)C(Cc1ccccc1)NC(=O)C(N)CC(=O)O (stereo not given) [Aspartame] | 4
63 | NS(=O)(=O)c1cc(C(=O)O)c(NCc2ccco2)cc1Cl [Furosemide] | 0.586
64 | O=c1cc(-c2ccccc2)oc2ccccc12 [Flavone] | 0.425
65 | CCOC(=O)N1CCC(=C2c3ccc(Cl)cc3CCc3cccnc32)CC1 [Loratadine] | 0.433
66 | N[C@@H](CCSSCC[C@H](N)C(=O)O)C(=O)O [L-Homocystine] | 7.57
67 | Cc1ccccc1C(=O)NCC(=O)O [2-Methylhippuric acid] | 3.28
68 | Cc1ncc(CO)c(C(=O)O)c1O [4-Pyridoxic acid] | 0.875
69 | COc1ccc(-c2coc3cc(O)ccc3c2=O)cc1 [Formononetin] | 0.446

Row | SMILES | LC retention time [min]
70 | CSCC[C@H](NC(C)=O)C(=O)O [N-Acetyl-L-methionine] | 1.97
71 | CC1(C)SC2C(NC(=O)C(N)c3ccc(O)cc3)C(=O)N2C1C(=O)O (stereo not given) [Amoxicillin] | 5.79
72 | COC(=O)Cc1ccc(C(C)(C)C)cc1 [Methyl p-tert-butylphenylacetate] | 0.415
73 | CCOC(=O)c1ccc(N)cc1 [Ethyl 4-aminobenzoate] | 0.422
74 | CCCCNC(=O)NS(=O)(=O)c1ccc(C)cc1 [Tolbutamide] | 0.432
75 | COc1ccc(C2CC(=O)c3c(O)cc(OC4OC(COC5OC(C)C(O)C(O)C5O)C(O)C(O)C4O)cc3O2)cc1O (stereo not given) [Hesperidin] | 2.97
76 | Cn1c(=O)[nH]c2[nH]c(=O)[nH]c2c1=O [1-Methyluric acid] | 3.32
77 | O=c1cc(CO)occ1O [Kojic acid] | 1.22
78 | Nc1nc2c(ncn2C2CC(O)C(CO)O2)c(=O)[nH]1 (stereo not given) [2'-Deoxyguanosine] | 4.06
79 | CC(=O)c1cnccn1 [2-Acetylpyrazine] | 0.441
80 | O=C(CO)[C@@H](O)[C@H](O)[C@H](O)COP(=O)(O)O [D-Fructose-6-phosphate] | 7.36
81 | CCCCCCC(N)C(=O)O (stereo not given) [2-Aminooctanoic acid] | 4.11
82 | COc1cc(C=CC(=O)O)cc(OC)c1OC [3,4,5-Trimethoxycinnamic acid] | 0.47
83 | CCN(CC)CCCC(C)Nc1c2ccc(Cl)cc2nc2ccc(OC)cc12 (stereo not given) [Quinacrine] | 3.99
84 | CN=C(NC#N)NCCSCc1nc[nH]c1C [Cimetidine] | 2.59
85 | CCCC(=O)OCC(COC(=O)CCC)OC(=O)CCC [Glycerol Tributyrate] | 0.412
86 | Nc1ccn(C2OC(CO)C(O)C2O)c(=O)n1 (stereo not given) [Cytidine] | 4.73
87 | NCCS(=O)O [Hypotaurine] | 6.07
88 | Nc1nc2c(ncn2C2OC(COP(=O)(O)OP(=O)(O)O)C(O)C2O)c(=O)[nH]1 (stereo not given) [Guanosine 5'-diphosphate] | 9.21
89 | Cc1nc2n(c(=O)c1CCN1CCC(c3noc4cc(F)ccc34)CC1)CCCC2 [Risperidone] | 2.42
90 | CCN(CC)CC#CCOC(=O)C(O)(c1ccccc1)C1CCCCC1 (stereo not given) [Oxybutynin] | 0.847
